Drawing on PubChem BioAssay AID212 (DTP/NCI, 2004), this text covers T/C for 17 compounds.

The test system of this assay is BDF1 mice, colon carcinoma 38 sc, T/C %. The assay can be described thus: NCI In Vivo Anticancer Drug Screen. Data for tumor model Colon Carcinoma 38 (subcutaneous) in B6D2F1 (BDF1) mice. In outline: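 Transplantable tumor in mice; compound-treated vs vehicle-dosed controls. Measured survival or tumor size; value = T ÷ C.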
Where [1] appears, read: endpoint: median tumor weight (est.), dose: 50.0 mg/kg/injection, schedule: Q07DX002 (ip), vehicle: Klucel (hydroxypropylcellulose) (HPC), higher = larger tumour.
The mark [2] stands for this setting: endpoint: median tumor weight (est.), dose: 100.0 mg/kg/injection, schedule: Q07DX002 (ip), vehicle: Klucel (hydroxypropylcellulose) (HPC), higher = larger tumour.
Where [3] appears, read: endpoint: median tumor weight (est.), dose: 200.0 mg/kg/injection, schedule: Q07DX002 (ip), vehicle: Klucel (hydroxypropylcellulose) (HPC), higher = larger tumour.
Setting [4] is: endpoint: median tumor weight (est.), dose: 400.0 mg/kg/injection, schedule: Q07DX002 (ip), vehicle: Klucel (hydroxypropylcellulose) (HPC), higher = larger tumour.
Where [5] appears, read: endpoint: median tumor weight (est.), dose: 800.0 mg/kg/injection, schedule: Q07DX002 (ip), vehicle: Klucel (hydroxypropylcellulose) (HPC), higher = larger tumour.
Where [6] appears, read: endpoint: median tumor weight (est.), dose: 12.5 mg/kg/injection, schedule: Q07DX002 (ip), vehicle: Klucel (hydroxypropylcellulose) (HPC), higher = larger tumour.
Setting [7] is: endpoint: median tumor weight (est.), dose: 25.0 mg/kg/injection, schedule: Q07DX002 (ip), vehicle: Klucel (hydroxypropylcellulose) (HPC), higher = larger tumour.
Setting [8] is: endpoint: median tumor weight (est.), dose: 12.5 mg/kg/injection, schedule: Q07DX002 (ip), vehicle: saline with Tween-80, higher = larger tumour.
Setting [9] is: endpoint: median tumor weight (est.), dose: 25.0 mg/kg/injection, schedule: Q07DX002 (ip), vehicle: saline with Tween-80, higher = larger tumour.
Where [10] appears, read: endpoint: median tumor weight (est.), dose: 50.0 mg/kg/injection, schedule: Q07DX002 (ip), vehicle: saline with Tween-80, higher = larger tumour.
[11] abbreviates: endpoint: median tumor weight (est.), dose: 100.0 mg/kg/injection, schedule: Q07DX002 (ip), vehicle: saline with Tween-80, higher = larger tumour.
Where [12] appears, read: endpoint: median tumor weight (est.), dose: 200.0 mg/kg/injection, schedule: Q07DX002 (ip), vehicle: saline with Tween-80, higher = larger tumour.
Where [13] appears, read: endpoint: median tumor weight (est.), dose: 400.0 mg/kg/injection, schedule: Q07DX002 (ip), vehicle: saline with Tween-80, higher = larger tumour.
Where [14] appears, read: endpoint: median tumor weight (est.), dose: 3.12 mg/kg/injection, schedule: Q07DX002 (ip), vehicle: saline with Tween-80, higher = larger tumour.

Molecules are shown by their SMILES. “And” between values parts separate entries of the source, which are not always exact repeats. Equal entries are not always repeated. Records with an inconclusive call do not appear.

In the case of `CC(=O)OC1(C)CC(C)C(=O)C(C(O)CC2CC(=O)NC(=O)C2)C1` (stereo not drawn), the T/C was 106 % of control (endpoint: median tumor weight (est.), dose: 47.0 micrograms/kg/injection, schedule: Q07DX002 (ip), vehicle: saline, higher = larger tumour); 123 % of control (endpoint: median tumor weight (est.), dose: 94.0 micrograms/kg/injection, schedule: Q07DX002 (ip), vehicle: saline, higher = larger tumour); 116 % of control (endpoint: median tumor weight (est.), dose: 188.0 micrograms/kg/injection, schedule: Q07DX002 (ip), vehicle: saline, higher = larger tumour); 117 % of control (endpoint: median tumor weight (est.), dose: 375.0 micrograms/kg/injection, schedule: Q07DX002 (ip), vehicle: saline, higher = larger tumour); 101 % of control (endpoint: median tumor weight (est.), dose: 750.0 micrograms/kg/injection, schedule: Q07DX002 (ip), vehicle: saline, higher = larger tumour).

Regarding `O=C1N[C@H]2[C@H](CS[C@H]2CCCCC(=O)N(CCP(c2ccccc2)c2ccccc2)CCP(c2ccccc2)c2ccccc2)N1`, the T/C under setting [1] is 71 % of control; the T/C under setting [2] is 71 % of control; the T/C under setting [3] is 91 % of control; the T/C under setting [4] is 96 % of control; the T/C under setting [5] is 89 % of control.

As to `CC(=O)OCC1OC(n2cc(CBr)nn2)C(OC(C)=O)C(OC(C)=O)C1OC(C)=O` (stereo not drawn), the T/C is 46 % of control (endpoint: median tumor weight (est.), dose: 6.25 mg/kg/injection, schedule: Q07DX003 (ip), vehicle: Klucel (hydroxypropylcellulose) (HPC), higher = larger tumour); 120 % of control (endpoint: median tumor weight (est.), dose: 6.25 mg/kg/injection, schedule: Q07DX003 (ip), vehicle: saline with Tween-80, higher = larger tumour); 93 % of control (endpoint: median tumor weight (est.), dose: 12.5 mg/kg/injection, schedule: Q07DX003 (ip), vehicle: Klucel (hydroxypropylcellulose) (HPC), higher = larger tumour); 67 % of control (endpoint: median tumor weight (est.), dose: 12.5 mg/kg/injection, schedule: Q07DX003 (ip), vehicle: saline with Tween-80, higher = larger tumour); 120 % of control (endpoint: median tumor weight (est.), dose: 25.0 mg/kg/injection, schedule: Q07DX003 (ip), vehicle: Klucel (hydroxypropylcellulose) (HPC), higher = larger tumour); 90 % of control (endpoint: median tumor weight (est.), dose: 25.0 mg/kg/injection, schedule: Q07DX003 (ip), vehicle: saline with Tween-80, higher = larger tumour). The T/C reads like this: (endpoint: median tumor weight (est.), dose: 50.0 mg/kg/injection, schedule: Q07DX003 (ip), vehicle: saline with Tween-80, higher = larger tumour) 53 % of control; (endpoint: median tumor weight (est.), dose: 100.0 mg/kg/injection, schedule: Q07DX003 (ip), vehicle: saline with Tween-80, higher = larger tumour) 64 % of control.

Turning to `C[N+](C)(C)c1ncnc2c1ncn2C1CCCO1` (stereo not drawn), the T/C by setting is: (endpoint: median tumor weight (est.), dose: 12.5 mg/kg/injection, schedule: Q07DX002 (ip), vehicle: saline, higher = larger tumour) 110 % of control; (endpoint: median tumor weight (est.), dose: 25.0 mg/kg/injection, schedule: Q07DX002 (ip), vehicle: saline, higher = larger tumour) 84 % of control; (endpoint: median tumor weight (est.), dose: 50.0 mg/kg/injection, schedule: Q07DX002 (ip), vehicle: saline, higher = larger tumour) 61 % of control and 77 % of control; (endpoint: median tumor weight (est.), dose: 200.0 mg/kg/injection, schedule: Q07DX002 (ip), vehicle: saline, higher = larger tumour) 65 % of control and 89 % of control.

As for `CCCCN(CCCC)C(Cl)=Nc1ccccc1`, the T/C reads like this: under setting [6], 111 % of control and 118 % of control; under setting [7], 93 % of control and 94 % of control; under setting [1], 68 % of control and 89 % of control.

For the compound `CC1(C)CC1(Br)Br`, the T/C reads like this: under setting [8], 155 % of control; under setting [9], 110 % of control and 96 % of control; under setting [10], 150 % of control; under setting [11], 124 % of control and 106 % of control; under setting [12], 155 % of control; under setting [13], 107 % of control.

For `ClC(Cl)=C(Cl)Cl`, the T/C by setting is: (endpoint: median tumor weight (est.), dose: 28.0 mg/kg/injection, schedule: Q07DX002 (ip), vehicle: saline with Tween-80, higher = larger tumour) 88 % of control and 103 % of control; (endpoint: median tumor weight (est.), dose: 50.0 mg/kg/injection, schedule: Q07DX002 (ip), vehicle: other, higher = larger tumour) 79 % of control; (endpoint: median tumor weight (est.), dose: 56.0 mg/kg/injection, schedule: Q07DX002 (ip), vehicle: saline with Tween-80, higher = larger tumour) 79 % of control and 100 % of control; (endpoint: median tumor weight (est.), dose: 100.0 mg/kg/injection, schedule: Q07DX002 (ip), vehicle: other, higher = larger tumour) 109 % of control and 112 % of control; (endpoint: median tumor weight (est.), dose: 112.0 mg/kg/injection, schedule: Q07DX002 (ip), vehicle: saline with Tween-80, higher = larger tumour) 52 % of control; (endpoint: median tumor weight (est.), dose: 400.0 mg/kg/injection, schedule: Q07DX002 (ip), vehicle: other, higher = larger tumour) 91 % of control. The T/C (endpoint: median tumor weight (est.), dose: 800.0 mg/kg/injection, schedule: Q07DX002 (ip), vehicle: other, higher = larger tumour) is 71 % of control.

As for `O=C1C2CC=CCC2C(=O)N1SC(Cl)(Cl)Cl` (stereo not drawn), the T/C runs as follows: under setting [14], 107 % of control; (endpoint: median tumor weight (est.), dose: 6.25 mg/kg/injection, schedule: Q07DX002 (ip), vehicle: saline with Tween-80, higher = larger tumour) 110 % of control; under setting [8], 99 % of control; under setting [9], 84 % of control.

Regarding `COC1=C(C)C(=O)C2=C(C1=O)C(CO)N1C(C#N)C3CC4C(C1C2N1CCOC41)N3C` (stereo not drawn), the T/C runs as follows: (endpoint: median tumor weight (est.), dose: 0.25 mg/kg/injection, schedule: Q07DX002 (ip), vehicle: saline + alcohol, higher = larger tumour) 67 % of control; (endpoint: median tumor weight (est.), dose: 0.5 mg/kg/injection, schedule: Q07DX002 (ip), vehicle: saline + alcohol, higher = larger tumour) 109 % of control; (endpoint: median tumor weight (est.), dose: 2.0 mg/kg/injection, schedule: Q07DX002 (ip), vehicle: saline + alcohol, higher = larger tumour) 153 % of control; (endpoint: median tumor weight (est.), dose: 4.0 mg/kg/injection, schedule: Q07DX002 (ip), vehicle: saline + alcohol, higher = larger tumour) 87 % of control.

`CCc1ccc(C2=C(O)C(=O)C(c3ccc(CC)cc3)=C(O)C2=O)cc1`: the T/C under setting [14] is 51 % of control, the T/C under setting [8] is 124 % of control, the T/C under setting [9] is 96 % of control and the T/C under setting [10] was 81 % of control.

Turning to `Nc1nc2nc[nH]c2c(=O)[nH]1`, the T/C was 90 % of control (endpoint: median tumor weight (est.), dose: 100.0 mg/kg/injection, schedule: Q07DX002 (ip), vehicle: suspension in saline, higher = larger tumour) and 83 % of control (endpoint: median tumor weight (est.), dose: 200.0 mg/kg/injection, schedule: Q07DX002 (ip), vehicle: suspension in saline, higher = larger tumour).

`Nc1ncnc2c1ncn2C1OC(COS(N)(=O)=O)C(O)C1O` (stereo not drawn): the T/C by setting is: (endpoint: median survival time, dose: 0.25 mg/kg/injection, schedule: Q02DX004 (sc), vehicle: saline, higher = longer survival) 100 % of control; (endpoint: median survival time, dose: 0.5 mg/kg/injection, schedule: Q02DX004 (sc), vehicle: saline, higher = longer survival) 100 % of control.

Consider `Cc1ccc(C2NC(=S)N3C(c4ccc(C)cc4)NC(=S)N23)cc1` (stereo not drawn), for which the T/C runs as follows: under setting [7], 94 % of control; under setting [1], 79 % of control; under setting [2], 83 % of control; under setting [3], 88 % of control; under setting [4], 89 % of control; under setting [5], 60 % of control.

As to `O=C(CC(=O)C(F)(F)F)c1csc2ccccc12`, the T/C reads like this: under setting [6], 110 % of control and 90 % of control; under setting [1], 76 % of control; under setting [3], 62 % of control.

`CCCCOC(=O)/C=C(\Br)C(=O)OCCCC`: the T/C by setting is: under setting [9], 76 % of control and 98 % of control; under setting [10], 71 % of control and 85 % of control; under setting [11], 84 % of control and 91 % of control; under setting [12], 81 % of control and 85 % of control; under setting [13], 69 % of control.

On to `COc1ccc(C(=O)/C(Br)=C/C(=O)O)cc1`, for which the T/C reads like this: (endpoint: median tumor weight (est.), dose: 4.0 mg/kg/injection, schedule: Q07DX002 (ip), vehicle: saline, higher = larger tumour) 104 % of control; (endpoint: median tumor weight (est.), dose: 8.0 mg/kg/injection, schedule: Q07DX002 (ip), vehicle: saline, higher = larger tumour) 98 % of control; (endpoint: median tumor weight (est.), dose: 16.0 mg/kg/injection, schedule: Q07DX002 (ip), vehicle: saline, higher = larger tumour) 104 % of control; (endpoint: median tumor weight (est.), dose: 32.0 mg/kg/injection, schedule: Q07DX002 (ip), vehicle: saline, higher = larger tumour) 71 % of control.

On to `Cc1noc(N)c1N`, for which the T/C reads like this: (endpoint: median tumor weight (est.), dose: 25.0 mg/kg/injection, schedule: Q07DX002 (ip), vehicle: water, higher = larger tumour) 79 % of control; (endpoint: median tumor weight (est.), dose: 50.0 mg/kg/injection, schedule: Q07DX002 (ip), vehicle: water, higher = larger tumour) 82 % of control; (endpoint: median tumor weight (est.), dose: 100.0 mg/kg/injection, schedule: Q07DX002 (ip), vehicle: water, higher = larger tumour) 78 % of control; (endpoint: median tumor weight (est.), dose: 200.0 mg/kg/injection, schedule: Q07DX002 (ip), vehicle: water, higher = larger tumour) 101 % of control; (endpoint: median tumor weight (est.), dose: 400.0 mg/kg/injection, schedule: Q07DX002 (ip), vehicle: water, higher = larger tumour) 74 % of control; (endpoint: median tumor weight (est.), dose: 800.0 mg/kg/injection, schedule: Q07DX002 (ip), vehicle: water, higher = larger tumour) 95 % of control.
